Results from patent publication US8188221B2, “Peptide homing to brain tumors” (Burnham Institute for Medical Research, priority 2008, dated 2012).
Ends that are not written are not given here.

Columns and labels:
Format in all cases: in vivo, mice
subcutaneous HIFko tumor = assay: Homing of fluorescein-conjugated peptide to subcutaneous HIFko tumors (histology); settings: 10 μg into tail vein, 60 min circulation, FIG. 4A
Protocol: Fluorescein-conjugated CGLSGLGVA peptide (10 μg) was injected into the tail vein of subcutaneous HIFko tumor-bearing mice. After 60 min of circulation tumor was excised and prepared for histological analysis. Peptide was visualized by using an antibody against FITC (rabbit anti-FITC, Zymed Laboratories). FIG. 4A. […] FIG. 4B. Same microscopic field as in FIG. 4A. Nuclei were visualized by DAPI staining (blue).

[1] = test system: human U87MG intracranial xenograft; assay: Homing and localization of fluorescein-conjugated peptide in intracranial U87MG tumors (histology, PECAM-1 co-staining)
Protocol: (§1) Fluorescein-conjugated CGLSGLGVA peptide (10 μg) was injected into tail vein of murine HIFko or human U87MG intracranial xenograft bearing mice. After 60 min of circulation tumor-containing brain was excised and prepared for histological analysis. Peptide was visualized by using an antibody against fluorescein (rabbit anti-FITC, Zymed Laboratories). […] Nuclei were visualized by DAPI staining (blue).
Fluorescein-conjugated CGLSGLGVA peptide (10 μg) was injected into the tail vein of intracranial human U87MG tumor-bearing mice. After 60 min of circulation tumor-containing brain was excised and prepared for histological analysis. Peptide was visualized by using an antibody against fluorescein (rabbit anti-FITC, Zymed Laboratories). […] Magnification in FIG. 6A, 200×; FIG. 6B, 400×.

[2] = test system: VEGF overexpressing (VEGF+) tumor; assay: Homing of fluorescein-conjugated peptide to intracranial VEGF-overexpressing tumors (histology); settings: 10 μg into tail vein, 60 min circulation, FIG. 3A
Protocol: Fluorescein-conjugated CGLSGLGVA peptide (10 μg) was injected into the tail vein of VEGF overexpressing (VEGF+) tumor-bearing mice. After 60 min of circulation tumor was excised and prepared for histological analysis. Peptide was visualized by using an antibody against fluorescein (rabbit anti-FITC, Zymed Laboratories). FIG. 3A. […] 3B: Same microscopic field as in 3A. Nuclei were visualized by DAPI staining (blue).

[3] = test system: intracranial HIFko islet tumors; assay: Homing of fluorescein-conjugated peptide to intracranial HIFko islet tumors (histology, anti-FITC); settings: 10 μg into tail vein, 60 min circulation
Protocol: Fluorescein-conjugated CGLSGLGVA peptide (10 μg) was injected into tail vein of HIFko tumor-bearing mice. After 60 min of circulation tumor-containing brain was excised and prepared for histological analysis. Peptide was visualized by using an antibody against fluorescein (rabbit anti-FITC, Zymed Laboratories). […] Presence of the tumor cells was confirmed by staining for the SV40 T-antigen specific for tumor cells from a subsequent section (green in FIG. 2B). FIGS. 2C and 2D show the same microscopic field as 2A and 2B. Nuclei were visualized by DAPI staining (blue).
as §1

[4] = test system: intracranial HIF-1alfa KO (HIFko) tumor; assay: Homing of phage displaying CGLSGLGVA to intracranial islet tumors (phage titration of organs); settings: peptide displayed on phage, 10^9 pfu into tail vein, 15 min circulation, perfusion, FIG. 1
Protocol: CGLSGLGVA or a control phage (10^9 pfu=plaque forming unit) were injected into the tail vein of intracranial HIF-1alfa KO (HIFko) tumor-bearing mice. After 15 min of circulation the mice were perfused through the heart with saline to remove unbound phage followed by excision of tumor containing brain, normal brain, liver, kidney and lungs. The number of phage homed to those organs were determined by titration.

Substance | detection of peptide in tumor tissue (subcutaneous HIFko tumor) | homing to tumor ([1]; U87MG human glioblastoma xenografts, intravenous injection into the tail vein) | homing pattern of peptide in tumor ([1]; human U87MG intracranial xenograft, 10 μg into tail vein, 60 min circulation, FIG. 5B) | colocalization with endothelial cell marker PECAM-1 ([1]; intracranial U87MG tumor, 10 μg into tail vein, 60 min circulation, FIG. 6) | detection of peptide in tumor tissue [2] | detection of peptide in tumor islets and surrounding normal brain ([3]; FIG. 2) | homing pattern of peptide in tumor ([3]; murine HIFko intracranial tumor, FIG. 5A) | homing of phage to tumor containing brain versus normal brain, liver, kidney and lungs [4]
Fluorescein-conjugated CGLSGLGVA peptide: CGLSGLGVA peptide conjugated to fluorescein, detected with anti-FITC antibody (also: fluorescein conjugate) | not detected in the tumor tissue | homes to the U87MG human glioblastoma xenografts | peptide distribution resembled that of blood vessels | did not colocalize with the blood vessel marker PECAM-1 | not detected in the tumor tissue | detected only in the tumor islets and not in the surrounding normal brain tissue | detected diffusively in the whole tumor tissue | 
CGLSGLGVA [novel nine amino acid long tumor-homing peptide] |  |  |  |  |  |  |  | very specifically homes to the intracranial, early stage astrocytoma model (HIFko)
